Experimental findings from article PMC12602695 (Nature Communications, 2025) are described below.

This test has as its system AcTPS2. The test can be described thus: product formation, ethyl acetate extraction, Michaelis-Menten fit. Type of test: biochemical, Astilbe chinensis. The following applies: 50 mM Tris-HCl pH 7.5, 1 mM MgCl2, 2 mM DTT, 12.5% glycerol, 0.1% Tween 20, 30 °C, 1 h.

On to `CC(C)=CCC/C(C)=C/CC/C(C)=C/COP(=O)(O)OP(=O)(O)O` [FPP, farnesyl diphosphate], for which the Michaelis constant (Km) came out at 23.8 µM.

The term Km denotes the substrate concentration at which the rate is half of its maximum.
